One experiment has as its system CD8+ T cells. In words: Enrichment of epitope-specific CD8 T cells from healthy donors, epitope-specific IFNg production (ELISA). The class given is cell-based, human. The conditions noted are these: positive co-cultures / co-cultures tested. As to the method: Enrichment of epitope-specific CD8 T cells was performed according to the protocol described by Butler et al., Clin Cancer Res.;13(6):1857-1867 (2007), doi:10.1158/1078-0432, but included the following amendments. CD8+ T lymphocytes were collected from PBMCs by magnetic-activated cell sorting (MACS) according to the CD8 isolation kit (Miltenyi Biotec). CD8+ T cells with >95% purity were subsequently cultured in T cell medium supplemented with IL-2 (36 IU/mL; but no gentamycin) for 1 day, after which expansion cycles started. K562ABC cells (kindly provided by prof. Bruce Levine, University of Pennsylvania, PA) were loaded with 10 μg/ml ROPN1 and/or ROPN1B peptide and incubated for 5 h at RT in serum-free medium, after which cells were washed and fixed with 0,1% paraformaldehyde. After washing, K562ABC cells were suspended at 0.1×10^6/mL and co-cultured with T cells in a 1:20 ratio. IL-2 (36 IU/mL) and IL-15 ([…]) were added at days 1 and 3 days after start of co-culture, and after 6 days, T cells were counted, suspended at 2×10^6/mL and rested for 1 day, after which the next cycle commenced (this schedule continued up to 4 or 5 cycles). Following 4 and 5 cycles, T cells were stained with pMHC multimers (HLA*0201/MLN, Immudex, Copenhagen, Denmark). pMHC-PE were pre-incubated at RT for 10 min followed by incubation with 7AAD, anti-CD3-FITC and anti-CD8-APC for 20 min. Cells were fixed with 1% paraformaldehyde and TCR expression was measured with flow cytometry and analyzed using FlowJoX software. FIG. 4A schematically depicts the procedure to enrich epitope-specific T cells, and obtainthe corresponding TCR genes.
Enriched T cells were tested for ROPN1 and/or ROPN1B epitope-specific IFNY production. To this end, T2 cells (4×10^6/mL) were loaded with peptide (20 ng/mL) for 30 min. T cells (2×10^5) were cultured in a 1:1 ratio with T2 cells in a round bottom 96-wells plate, and the next day supernatant was collected and IFN-γ production was measured with an Enzyme-linked immunosorbent assay (ELISA, Invitrogen) according to manufacturer's protocol (FIG. 4B). T2 cells without peptide were included as a negative control; and staphylococcal enterotoxin B (0.1 μg, Sigma) was used as a positive control.
Enrichment of epitope-specific T cells was performed by co-culturing naïve T cells with CD11c-positive cells that were loaded with peptide. PBMCs were passed through a cell strainer (70 μm) and used for the isolation of naïve T cells and CD11c cells. To isolate CD11c-positive cells (typically dendritic cells, DC), PBMCs were stained for 10 mM at 4° C. with Fc block (10 μL/10^7 PBMCs, BD Pharmingen, Vianen, the Netherlands), after which cells were stained with CD11c-PE antibody (10 μL/10^7 PBMCs, BD Pharmingen) for 30 mM at 4° C., washed, and incubated with PE beads (10 μL/10^7 PBMCs, Miltenyi Biotech, Bergisch Gladbach, Germany) for another […] at 4° C. After washing, cells were dissolved in magnetic-activated cell sorting (MACS) buffer and passed through a MACS LS column (Miltenyi Biotec) to positively select CD11c cells. After selection, CD11c cells were irradiated with 30 Gy, and cultured overnight in a 24-wells plate (1×10^6/mL) in RPMI medium supplemented with 1% human serum (Sanquin), 1% antibiotics, […] L-glutamine, a DC maturation cocktail (a mixture of GM-CSF (10 ng/mL, ImmunoTools, Germany), IL-4 (10 ng/mL, ImmunoTools), LPS (100 ng/mL, Invitrogen, Goteborg, Sweden) and IFNY (10 ng/mL, Preprotech, London, United Kingdom)), as well as peptide (10 pg/mL). Naïve T cells were isolated with use of the Naïve T Cell isolation kit (Miltenyi Biotec) according to the manufacturer's protocol, and suspended in RPMI medium supplemented with 5% human serum (Sanquin), 1% antibiotics, […] L-glutamine and IL-7 (5 ng/mL, BD Pharmingen). The run-through of the naïve T cell selection was frozen down and used for re-stimulation of epitope-specific T cells. […]
(In general: In an ELISA, binding on a coated surface is turned into a signal by an enzyme label.)

A further experiment addresses T1, HLA-A2 (Homo sapiens, UniProt P04439, D140Y/D185E/D98H/E176V/E277Q/G131W/G231S/I119V/I121R/I166T/I218V/L300P/L318F/N151K/N90K/P208A/P217A/Q86G/Q94H/R138H/R169H/T345S).
T1 construct: The HLA-A2 stabilization assay was performed using T2 cells; endogenous in cells; host or cells: T2 cells (LCLxT lymphoblastoid hybrid cell line 0.1743CEM.T2)
In words: HLA-A2 stabilization assay using T2 cells. The class given is binding.

Setting [1] is: Table 2 (Example 1), healthy donor T cells.
The mark [2] stands for this setting: Table 2 (Example 1), EC50 of peptide titration on T2 cells, read-out: Affinity for HLA A2:01.
The mark [3] stands for this setting: Table 4 (Examples 1 and 2), EC50 of peptide titration on T2 cells, read-out: Affinity for HLA.A2.01.

Structures are written as SMILES. Like-named read-outs stand apart in the source and are kept apart here. Peptide text beside a SMILES is read from it.

For the compound `CC[C@H](C)[C@H](NC(=O)[C@H](Cc1ccc(O)cc1)NC(=O)[C@@H](NC(=O)[C@H](Cc1ccc(O)cc1)NC(=O)[C@H](CC(C)C)NC(=O)[C@@H](N)Cc1ccccc1)[C@@H](C)O)C(=O)N[C@@H](C)C(=O)N[C@@H](CCCCN)C(=O)N[C@H](C(=O)O)C(C)C` (H-FLYTYIAKV-OH; N-terminus and C-terminus assumed), the “T cell responses observed (IFNg) against epitope” value (shortened to “T cell responses observed (IFNg)”) with CD8+ T cells (setting [1]) and with CD8+ T cells (Table 4) was 1/4 co-cultures throughout. For the same compound, the EC50 was 10.9 µM on HLA-A2 (setting [2]) and 8.11 µM at HLA-A2 (setting [3]).
Regarding `CC[C@H](C)[C@H](NC(=O)[C@H](Cc1ccc(O)cc1)NC(=O)[C@H](CC(N)=O)NC(=O)[C@H](CC(C)C)NC(=O)[C@@H](N)CCSC)C(=O)N[C@@H](CCC(=O)O)C(=O)N[C@@H](CCC(N)=O)C(=O)N[C@@H](CCC(=O)O)C(=O)N[C@H](C(=O)O)C(C)C` (H-MLNYIEQEV-OH; N-terminus and C-terminus assumed), the “T cell responses observed (IFNg)” value with CD8+ T cells (setting [1]) and in the experiment on CD8+ T cells (Table 4) was 1/3 co-cultures in each case. Also, the EC50 at HLA-A2 (Example 1, top-ranked epitopes, read-out: EC50 (HLA-A2 binding)) came out at 6.6 µM; on HLA-A2 (setting [2]) it was 6.56 µM; on HLA-A2 (setting [3]), 4.82 µM.
As for `CC[C@H](C)[C@H](NC(=O)[C@H](Cc1ccc(O)cc1)NC(=O)[C@@H](NC(=O)[C@H](Cc1ccc(O)cc1)NC(=O)[C@H](CC(C)C)NC(=O)[C@@H](N)Cc1ccccc1)[C@@H](C)O)C(=O)N[C@@H](C)C(=O)N[C@@H](CCC(=O)O)C(=O)N[C@H](C(=O)O)C(C)C` (H-FLYTYIAEV-OH; N-terminus and C-terminus assumed), the “T cell responses observed (IFNg)” value in the experiment with CD8+ T cells (Table 4) was 2/2 co-cultures. Also, the EC50 on HLA-A2 (setting [3]) was 21.1 µM.
As for `CSCC[C@H](NC(=O)[C@H](CCC(N)=O)NC(=O)[C@H](C)N)C(=O)N[C@@H](Cc1c[nH]c2ccccc12)C(=O)N[C@@H](CCCCN)C(=O)N[C@H](C(=O)N[C@H](C(=O)N[C@@H](CC(N)=O)C(=O)N[C@@H](CC(C)C)C(=O)O)C(C)C)C(C)C` (H-AQMWKVVNL-OH; N-terminus and C-terminus assumed), in the experiment with CD8+ T cells (Table 4), the “T cell responses observed (IFNg)” value is 2/2 co-cultures. Besides, the figures for the EC50 at HLA-A2 (setting [2]) and at HLA-A2 (setting [3]) were 11.4 µM and 10.5 µM, respectively.

Source of the values: US20240131155A1, “T CELLS FOR USE IN THERAPY” (Erasmus University Medical Center Rotterdam, priority 2021, published 2024).
